Experimental data: patent US12459876B2, “One-step kit-based synthesis of 2-deoxy-2-[18F]fluoro-D-sorbitol” (The Johns Hopkins University, priority 2020, dated 2025)
Read-outs that look alike come from different tables or passages of the source.

Assays:
[1] = in vivo; cited from earlier work
[2] = rat, in vivo; cited from earlier work
E. coli = conditions: cited from earlier work
[3] = human, in vivo; cited from earlier work
K. pneumoniae = conditions: intravenous; PET 120 minutes post-tracer injection; n=6; Mann Whitney U test

Structure (SMILES): OC[C@@H](O)[C@@H](O)[C@H](O)[C@@H]([18F])CO [^18F-FDS, 2-deoxy-2-[^18F]fluoro-D-sorbitol]
- Route of clearance [1]: predominantly cleared through the kidneys
- Accumulation in the renal cortex [2]: rapid accumulation
- Renal uptake [2]: significantly delayed
- Detection of therapeutic failures (E. coli; MDR, extended-spectrum β-lactamase producing E. coli strains): detect therapeutic failures
- Distinction of infection from sterile inflammation (E. coli; mouse models): able to distinguish infection from sterile inflammation
- Accumulation in the renal cortex [3]: rapid ^18F-FDS accumulation in the renal cortex with gradual transition to the parenchyma
- PET signal outside the site of infection (biodistribution) (Enterobacterales; patient with Enterobacter aerogenes cellulitis, MIP): Signal also is noted in the heart (blood pool), liver, kidneys, and the urinary bladder
- Monitoring of antimicrobial response by repeat imaging (Enterobacterales; patients, repeat imaging after antibiotic treatments): able to monitor antimicrobial response
- SUVmean, areas of pneumonia compared to unaffected lung (K. pneumoniae): significantly higher
